“And” between values parts separate entries of the source, which are not always exact repeats. Equal entries are not always repeated.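 Results reflect a 48-hour exposure of cells in 96-well plates to compound at five concentrations. GI50: concentration for 50% inhibition of growth. TGI denotes the concentration required for complete inhibition of growth.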

Among the test systems are CCRF-CEM leukemia; HCT-15 colon; SK-MEL-2 melanoma; HCC-2998 colon; IGROV1 ovarian; NCI-H23 lung; SW-620 colon; NCI-H522 lung; LOX IMVI melanoma; A549 NSCLC.
Test in all cases: NCI-60 cell line screen, 48 h

Take `Cc1cc2c(cc1C)[n+](=O)c(C(=O)C/C(=N/NC(=O)c1ccccc1O)C(=O)Nc1ccccc1C(C)C)c(C)n2[O-]`: the TGI in the assay on CCRF-CEM leukemia is 94.1 µM; in the assay with HCT-15 colon it was above 100 µM; with SK-MEL-2 melanoma, above 100 µM; in the assay on HCC-2998 colon, above 100 µM; in the assay with IGROV1 ovarian, above 100 µM; with NCI-H23 lung, above 100 µM. The TGI in the assay with SW-620 colon, in the assay on NCI-H522 lung, in the assay on LOX IMVI melanoma and in the assay with A549 NSCLC was above 100 µM in each case.
For the molecule `N#CC1(c2nc3ccccc3o2)C(=O)C(=O)N(C2C3CC4CC(C3)CC2C4)C(=O)C1=O` (stereo not drawn), the TGI in the assay on CCRF-CEM leukemia, with HCT-15 colon, in the assay with SK-MEL-2 melanoma, in the assay with HCC-2998 colon, in the assay with IGROV1 ovarian and in the assay with NCI-H23 lung was above 100 µM each time. In addition, the TGI in the assay on SW-620 colon, in the assay with NCI-H522 lung, in the assay on LOX IMVI melanoma and in the assay with A549 NSCLC was above 100 µM each time.
Take `CCCCCCCCCCCCCC(=S)NCCCC[C@H](NC(=O)OCc1ccccc1)C(=O)Nc1ccccc1`: the GI50 in the assay with CCRF-CEM leukemia was 4.04 µM; in the assay with HCT-15 colon, 3.52 µM; in the assay on SK-MEL-2 melanoma it was 3.48 µM; in the assay with HCC-2998 colon it was 5.69 µM; with IGROV1 ovarian, 5870 nM; with NCI-H23 lung, 4140 nM. The GI50 was 4.12 µM in the assay on SW-620 colon, 2840 nM in the assay on NCI-H522 lung, 5300 nM with LOX IMVI melanoma and 6310 nM in the assay with A549 NSCLC. Also, the TGI in the assay with CCRF-CEM leukemia was above 100 µM; with HCT-15 colon, above 100 µM; with SK-MEL-2 melanoma it was 26.9 µM; in the assay on HCC-2998 colon, above 100 µM; in the assay with IGROV1 ovarian, above 100 µM; with NCI-H23 lung it was above 100 µM. Besides, the TGI in the assay on SW-620 colon is above 100 µM; in the assay with NCI-H522 lung, 31.2 µM; in the assay on LOX IMVI melanoma it was above 100 µM; in the assay with A549 NSCLC, above 100 µM.
`COc1ccc(NC(=O)Nc2n[nH]c3ccccc23)cc1`: the GI50 in the assay with CCRF-CEM leukemia is 5.96 µM; in the assay on HCT-15 colon it was above 100 µM; with SK-MEL-2 melanoma it was above 100 µM; in the assay with HCC-2998 colon, above 100 µM; with IGROV1 ovarian, above 100000 nM; with NCI-H23 lung it was above 100000 nM. Besides, the GI50 in the assay on SW-620 colon is above 100 µM; with NCI-H522 lung, above 100000 nM; in the assay with LOX IMVI melanoma, above 100000 nM; with A549 NSCLC it was above 100000 nM. Further, the TGI with CCRF-CEM leukemia, in the assay on HCT-15 colon, with SK-MEL-2 melanoma, with HCC-2998 colon, with IGROV1 ovarian and in the assay on NCI-H23 lung was above 100 µM in each case. Moreover, the TGI with SW-620 colon, in the assay on NCI-H522 lung, in the assay with LOX IMVI melanoma and in the assay on A549 NSCLC was above 100 µM throughout.
Consider `O=C(c1cccs1)c1c(C(F)(F)F)n([O-])c2ccccc2[n+]1=O`, for which the GI50 was 6.69 µM in the assay on CCRF-CEM leukemia; 0.432 µM in the assay with HCT-15 colon; 2.21 µM with SK-MEL-2 melanoma; 0.663 µM in the assay on HCC-2998 colon; 60.3 nM in the assay with IGROV1 ovarian; 788 nM in the assay on NCI-H23 lung. In addition, the GI50 in the assay with SW-620 colon is 1.01 µM; in the assay with NCI-H522 lung, 125 nM; with LOX IMVI melanoma, 448 nM; with A549 NSCLC, 1360 nM. Also, the TGI in the assay with CCRF-CEM leukemia turned out to be 13.1 µM; with HCT-15 colon it was 1.1 µM; in the assay with SK-MEL-2 melanoma, 10.5 µM; in the assay on HCC-2998 colon it was 1.3 µM; in the assay on IGROV1 ovarian it was 2.29 µM; in the assay on NCI-H23 lung it was 1.73 µM. Besides, the TGI in the assay with SW-620 colon came to 5.94 µM; in the assay on NCI-H522 lung, 1.54 µM; with LOX IMVI melanoma it was 1.12 µM; in the assay with A549 NSCLC, 3.78 µM.
As to `CC(=O)OC1=C2CC3(C)OC(=O)CC(C)(C)C3=CC=C2C=C(C(C)C)C1=O` (stereo not drawn), the TGI with CCRF-CEM leukemia is 1.02 µM; in the assay with HCT-15 colon, 0.392 µM; in the assay with SK-MEL-2 melanoma it was 1.65 µM; in the assay on HCC-2998 colon, 2.15 µM; with IGROV1 ovarian it was 2.46 µM; in the assay with NCI-H23 lung, 1.47 µM. Further, the TGI with SW-620 colon is 1.14 µM; in the assay with NCI-H522 lung it was 0.41 µM; with LOX IMVI melanoma, 0.425 µM; in the assay on A549 NSCLC, 3.78 µM.
`O=C(Nc1cccc(-n2ccc3c(NC(=O)c4ccccc4)nccc32)c1)c1cccc(C(F)(F)F)c1`: the GI50 is 0.0358 µM in the assay on CCRF-CEM leukemia; 0.0357 µM in the assay with HCT-15 colon; 0.0547 µM with SK-MEL-2 melanoma; 0.0362 µM in the assay with HCC-2998 colon; 84.4 nM with IGROV1 ovarian; 68.5 nM in the assay on NCI-H23 lung. Further, the GI50 in the assay with SW-620 colon is 0.0411 µM; with NCI-H522 lung it was 19.9 nM; in the assay with LOX IMVI melanoma it was 83.8 nM; with A549 NSCLC, 43 nM. The TGI in the assay on CCRF-CEM leukemia is 4.13 µM; in the assay with SK-MEL-2 melanoma, 14.3 µM; with HCC-2998 colon, above 66.3 µM; in the assay on IGROV1 ovarian, above 46.9 µM; in the assay on NCI-H23 lung, above 46.2 µM; in the assay with SW-620 colon, 13.4 µM. The TGI with NCI-H522 lung amounted to 0.0759 µM; in the assay on LOX IMVI melanoma, 2.78 µM; in the assay on A549 NSCLC it was 2.61 µM.
As for `CC(=O)c1ccc(Nc2cc(-c3ccccc3)nc3c(O)cccc23)cc1`, the GI50 in the assay on CCRF-CEM leukemia is 5.05 µM; in the assay on HCT-15 colon, 8.31 µM; in the assay with SK-MEL-2 melanoma, 13.2 µM; with HCC-2998 colon, 13.7 µM; in the assay on IGROV1 ovarian it was 2570 nM; with NCI-H23 lung, 12500 nM. Besides, the GI50 with SW-620 colon was 7.06 µM; in the assay on NCI-H522 lung, 2980 nM; with LOX IMVI melanoma, 14500 nM; in the assay on A549 NSCLC, 30600 nM. Moreover, the TGI is 34.6 µM in the assay on CCRF-CEM leukemia; above 100 µM in the assay on HCT-15 colon; 40.4 µM with SK-MEL-2 melanoma; 36.7 µM in the assay with HCC-2998 colon; 13.4 µM in the assay on IGROV1 ovarian; 64.7 µM in the assay on NCI-H23 lung. Besides, the TGI in the assay with SW-620 colon is above 100 µM; in the assay on NCI-H522 lung it was 9.64 µM; in the assay on LOX IMVI melanoma it was above 100 µM; in the assay on A549 NSCLC it was above 100 µM.
For `COc1c(C2CC(=O)Nc3c2cnn3Cc2ccco2)cc2c(c1OC)OCO2` (stereo not drawn), the GI50 is 0.597 µM in the assay on CCRF-CEM leukemia; 0.431 µM with HCT-15 colon; 0.421 µM with SK-MEL-2 melanoma; 1.1 µM in the assay on HCC-2998 colon; 1730 nM with IGROV1 ovarian; 674 nM with NCI-H23 lung. Also, the GI50 with SW-620 colon is 0.385 µM; in the assay on NCI-H522 lung, 349 nM; in the assay with LOX IMVI melanoma, 864 nM; with A549 NSCLC it was 610 nM. Moreover, the TGI in the assay on CCRF-CEM leukemia was above 100 µM; with HCT-15 colon, above 100 µM; with SK-MEL-2 melanoma, above 100 µM; in the assay on HCC-2998 colon, above 28.4 µM; with IGROV1 ovarian, above 100 µM; in the assay on NCI-H23 lung it was above 100 µM. In addition, the TGI in the assay with SW-620 colon was above 100 µM; in the assay on NCI-H522 lung, 3.24 µM; with LOX IMVI melanoma it was above 100 µM; in the assay with A549 NSCLC, above 100 µM.
With `CC1(C)N=C(N)N=C(N)N1c1ccc(CCCCc2ccc(S(=O)(=O)F)cc2)cc1`, the GI50 was 0.561 µM in the assay on CCRF-CEM leukemia; 3.16 µM in the assay with HCT-15 colon; 4.91 µM in the assay with SK-MEL-2 melanoma; 4.55 µM in the assay with HCC-2998 colon; 445 nM with IGROV1 ovarian; 2600 nM with NCI-H23 lung. The GI50 is 0.415 µM with SW-620 colon, 2430 nM in the assay on NCI-H522 lung, 488 nM in the assay with LOX IMVI melanoma and 623 nM in the assay on A549 NSCLC. Moreover, the TGI in the assay on CCRF-CEM leukemia was 19.7 µM; with HCT-15 colon, above 100 µM; in the assay with SK-MEL-2 melanoma it was 21.8 µM; in the assay with HCC-2998 colon, 26.7 µM; with IGROV1 ovarian, 23.5 µM; in the assay with NCI-H23 lung it was 24.8 µM. Also, the TGI in the assay on SW-620 colon was 15.4 µM; in the assay with NCI-H522 lung, 16.2 µM; in the assay with LOX IMVI melanoma, 15 µM; in the assay on A549 NSCLC, above 100 µM.
Turning to `Clc1ccccc1C(c1ccccc1)(c1ccccc1)n1ccnc1`, the TGI with CCRF-CEM leukemia is 31.4 µM; in the assay with HCT-15 colon it was 12.5 µM and 22.7 µM; in the assay on SK-MEL-2 melanoma, 7.22 µM and 29.3 µM; with HCC-2998 colon it was 12.7 µM and 31 µM; in the assay on IGROV1 ovarian, 18.7 µM and 22.9 µM; in the assay with NCI-H23 lung, 13.1 µM and 26.3 µM. Besides, the TGI with SW-620 colon was 13.3 µM and 40.1 µM; with NCI-H522 lung, 8.89 µM and 18.9 µM; in the assay on LOX IMVI melanoma, 4.66 µM; in the assay on A549 NSCLC, 13.3 µM and 29.3 µM. The GI50 was 2.58 µM in the assay with HCT-15 colon; 2.66 µM in the assay with SK-MEL-2 melanoma; 3.3 µM in the assay with HCC-2998 colon; 3350 nM in the assay on IGROV1 ovarian; 2880 nM in the assay with NCI-H23 lung; 3.28 µM with SW-620 colon. The GI50 in the assay on NCI-H522 lung was 2660 nM; with LOX IMVI melanoma, 1690 nM; with A549 NSCLC it was 2430 nM.
Turning to `C=C1C(O)C2CCC(C)(C)C(=O)C2=C(CC(C)C)C12CC2` (stereo not drawn), the GI50 with CCRF-CEM leukemia is 36.8 µM; in the assay with HCT-15 colon, 54.4 µM; with SK-MEL-2 melanoma, above 100 µM; in the assay with HCC-2998 colon, 16.6 µM; in the assay with IGROV1 ovarian it was above 100000 nM; in the assay on NCI-H23 lung it was 66700 nM. For the same molecule, the GI50 in the assay with SW-620 colon is 42 µM; with NCI-H522 lung, 36600 nM; in the assay on LOX IMVI melanoma, 68500 nM; in the assay with A549 NSCLC, 93300 nM. The TGI was above 100 µM with CCRF-CEM leukemia; above 100 µM in the assay on HCT-15 colon; above 100 µM with SK-MEL-2 melanoma; 65.8 µM in the assay with HCC-2998 colon; above 100 µM in the assay on IGROV1 ovarian; above 100 µM with NCI-H23 lung. For the same molecule, the TGI in the assay on SW-620 colon, in the assay with NCI-H522 lung, with LOX IMVI melanoma and with A549 NSCLC was above 100 µM in each case.

These data come from PubChem BioAssay (NCI).
